Results from US6111132A, “Compounds and methods for synthesis and therapy” (priority 1998, dated 2000).

target: Neuraminidase Flu B (Influenza B virus, UniProt P03474); experiment: biochemical
Excerpt: Compositions of the invention are screened for inhibitory activity against neuraminidase by any of the conventional techniques for evaluating enzyme activity. Within the context of the invention, typically compositions are first screened for inhibition of neuraminidase in vitro and compositions showing inhibitory activity are then screened for activity in vivo.
(§1) Useful in vitro screens have been described in detail and will not be elaborated here. However, von Itzstein, M. et al.; "Nature", 363(6428):418-423 (1993), in particular page 420, column 2, full paragraph 3, to page 421, column 2, first partial paragraph, describes a suitable in vitro assay of Potier, M.; et al.; "Analyt. Biochem.", 94:287-296 (1979), as modified by Chong, A. K. J.; et al.; "Biochem. Biophys. Acta", 1077:65-71 (1991); and Colman, P. M.; et al.; International Publication No. WO 92/06691 (Int. App. No. PCT/AU90/00501, publication date Apr. 30, 1992) page 34, line 13, to page 35, line 16, describes another useful in vitro screen.
Enzyme Inhibition: Using the methods of screening in vitro activity described above, the following activities were observed: […]

Chain of Neuraminidase Flu B (P03474 whole entry): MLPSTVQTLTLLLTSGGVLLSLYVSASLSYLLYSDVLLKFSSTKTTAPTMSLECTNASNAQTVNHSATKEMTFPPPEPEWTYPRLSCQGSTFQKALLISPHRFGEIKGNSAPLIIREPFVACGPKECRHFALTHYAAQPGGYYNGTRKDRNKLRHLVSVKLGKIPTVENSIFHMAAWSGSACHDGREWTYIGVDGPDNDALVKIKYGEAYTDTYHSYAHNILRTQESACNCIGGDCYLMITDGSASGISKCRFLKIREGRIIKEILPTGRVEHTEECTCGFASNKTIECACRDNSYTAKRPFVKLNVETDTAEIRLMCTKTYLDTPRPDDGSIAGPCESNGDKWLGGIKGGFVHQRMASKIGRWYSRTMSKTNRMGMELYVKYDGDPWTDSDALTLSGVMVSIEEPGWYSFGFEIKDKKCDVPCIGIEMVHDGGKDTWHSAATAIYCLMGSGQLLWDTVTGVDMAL

`CC(=O)N[C@H]1[C@H](N2CCCCC2)C=C(C(=O)O)C[C@@H]1N` [Compound 5l] gave an IC50 of 3 nM.

target: Neuraminidase Flu A; experiment: Neuraminidase inhibition in vitro, Flu A; assay type: biochemical, influenza virus A
Excerpt: Compositions of the invention are screened for inhibitory activity against neuraminidase by any of the conventional techniques for evaluating enzyme activity.
as §1

In order of rising IC50:
1. CCC(CC)N(C)[C@@H]1C=C(C(=O)O)C[C@H](N)[C@H]1NC(C)=O [Compound 5c]  6 nM
2. CCC(CC)N[C@@H]1C=C(C(=O)O)C[C@H](N)[C@H]1NC(C)=O [Compound 12a]  11.5 nM
3. CCCN(CCC)[C@@H]1C=C(C(=O)O)C[C@H](N)[C@H]1NC(C)=O [Compound 5i]  12 nM
4. CC(=O)N[C@H]1[C@H](N2CCCCC2)C=C(C(=O)O)C[C@@H]1N [Compound 5l]  30 nM
5. CCCN(CC1CC1)[C@@H]1C=C(C(=O)O)C[C@H](N)[C@H]1NC(C)=O [Compound 5j]  50 nM
6. CCCCN(CC)[C@@H]1C=C(C(=O)O)C[C@H](N)[C@H]1NC(C)=O [Compound 5h]  85 nM
7. CCCN(CC)[C@@H]1C=C(C(=O)O)C[C@H](N)[C@H]1NC(C)=O [Compound 5g]  90 nM
8. CC(=O)N[C@H]1[C@H](N(C)CCc2ccccc2)C=C(C(=O)O)C[C@@H]1N [Compound 5e]  100 nM
9. CCC(CC)CN(C)[C@@H]1C=C(C(=O)O)C[C@H](N)[C@H]1NC(C)=O [Compound 5d]  120 nM
10. CCCCN(C)[C@@H]1C=C(C(=O)O)C[C@H](N)[C@H]1NC(C)=O [Compound 5b]  180 nM
11. CC(=O)N[C@H]1[C@H](N(C)C2CCCCC2)C=C(C(=O)O)C[C@@H]1N [Compound 5f]  200 nM
12. CC(=O)N[C@H]1[C@H](N2CCOCC2)C=C(C(=O)O)C[C@@H]1N [Compound 5m]  200 nM
13. CCCN[C@@H]1C=C(C(=O)O)C[C@H](N)[C@H]1NC(C)=O [Compound 12b]  200 nM
14. CC(=O)N[C@H]1[C@H](N2CCCC2)C=C(C(=O)O)C[C@@H]1N [Compound 5k]  400 nM
